Laboratory results taken from patent US20190322643A1 (Georgia State University Research Foundation, Inc., priority 2016, published 2019).

Legend:
[1] = test system: HDAC; test: Cell based homogenous HDAC assay, K562; settings: read-out: IC50-HDAC K562; K562 cells, mean ± SD of triplicate
Description: (§3) After 24 h, 9 μl inhibitors with different concentration were added to the HeLa cells and incubation was continued for 3 h under cell culture conditions. After this treatment period, 10 μl of a 2 mM stock solution of the substrate Boc-K(Ac)-AMC was added into the 96 well plates with Hela cells and inhibitors. […] A549 and K562 cell lines used the same method, respectively. IC50s were calculated using GraphPad Prizm statistical package with sigmoidal variable slope dose response curve fit.
(§4) Boc-K(Ac)-AMC was used as a cell-permeable HDAC substrate, as after deacetylation it is cleaved by trypsin to release the florescent 7-amino-4-methylcoumarin (AMC).

[2] = target: T1, Mouse histone methyltransferase G9a (969-1263) (Mus musculus, UniProt Q9Z148); test: MALDI-TOF methylation study of G9a inhibition; format: biochemical; settings: inhibitors at 5 μM concentration for 30 min
T1 construct: The 6His-sumo mG9a (969-1263) protein was purified using the following procedure; 6His-sumo (cleaved yes); made in house; host or cells: Escherichia coli BL21 (DE3)
T1 sequence (Q9Z148 969-1263): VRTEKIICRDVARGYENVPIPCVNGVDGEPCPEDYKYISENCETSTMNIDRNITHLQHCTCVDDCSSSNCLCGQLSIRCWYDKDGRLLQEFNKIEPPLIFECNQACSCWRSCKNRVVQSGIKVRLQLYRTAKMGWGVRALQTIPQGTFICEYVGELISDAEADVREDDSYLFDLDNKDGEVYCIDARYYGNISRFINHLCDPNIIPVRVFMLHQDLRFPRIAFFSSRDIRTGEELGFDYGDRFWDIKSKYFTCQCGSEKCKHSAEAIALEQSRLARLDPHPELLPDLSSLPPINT
Description: Mouse histone methyltransferase G9a (969-1263) cDNA was amplified from the cDNA of BALB/c mouse thymus, and the fragment was sub-cloned into a vector with a 6His-sumo tag. […] The 6His-sumo mG9a (969-1263) protein was purified using the following procedure: harvested cell pellet was re-suspended in 20 mM Tris (pH 8.0), 500 mM NaCl, 0.1% β-mercaptoethanol, and 1 mM PMSF. Cells were lysed by sonicating for 15 seconds with 6 second intervals for a total time of 15 minutes on an ice bath. […] The 6His-sumo tag was cleaved from the column by adding Ubiquitin-like-specific protease 1 (ULP-1) at 4° C. for 12 hours. Wash buffer was then run through the Ni^+ column again and the elution buffer collected. Subsequently, advanced protein purification was done by HiTrap Q HP sequential Superdex 200 10/300 GL. Elute of every step was analyzed by SDS PAGE, stained by Coomassie brilliant blue (CBB). […] The reaction was incubated at room temperature for 30 min, and stopped by TFA. 1 μL of the sample was mixed with CHCA matrix and m/z peaks were obtained at reflection positive mode. The results of mass spectrum were analyzed using the Bruker flex analysis software and data processing was carried out as described below. MALDI-TOF based experiments were performed according to the protocol developed by Chang et al. (Nat. Struct. Mol. Biol. 2009, 16, 312-317). MALDI spectra were collected using Bruker flex control software and analyzed by flex analysis. After labelling each cluster peaks of H3K9Me0, H3K9Me1 and H3K9Me2 for all of the tested concentrations, area under the cluster (AUC) were extracted by using the same flex analysis software. % abundance of each peak was calculated by following formula: A=% Abundance of (H3K9Me0)=area of H3K9Me0/(area of H3K9Me0+area of H3K9Me1+area of H3K9Me2) B=% Abundance of (H3K9Me1)=area of H3K9Me1/(area of H3K9Me0+area of H3K9Me1+area of H3K9Me2) C=% Abundance of (H3K9Me2)=area of H3K9Me2/(area of H3K9Me0+area of H3K9Me1+area of H3K9Me2). This was repeated for each spectra (3 multiples for each samples). […] Finally % inhibition was found by subtracting % MA(i) from 100. […] A biochemical assay using MALDI-TOF was used to visualize the effects of the synthesized compounds on G9a enzymatic activity. […] Struct. Mol. Biol. 2009, 16, 312-317).

[3] = test system: HDAC; test: Cell based homogenous HDAC assay, A549; settings: read-out: IC50-HDAC A549; A549 cells, mean ± SD of triplicate
Description: as §3, §4

[4] = target: T2, G9a (Homo sapiens, UniProt Q96KQ7); test: H3K9Me2 cell immunofluorescence in-cell Western (ICW) assay; format: cell-based; settings: MDA-MB-231 cell line, 48 h
T2 construct: endogenous in cells; host or cells: MDA-MB-231
T2 sequence (Q96KQ7 1-1210): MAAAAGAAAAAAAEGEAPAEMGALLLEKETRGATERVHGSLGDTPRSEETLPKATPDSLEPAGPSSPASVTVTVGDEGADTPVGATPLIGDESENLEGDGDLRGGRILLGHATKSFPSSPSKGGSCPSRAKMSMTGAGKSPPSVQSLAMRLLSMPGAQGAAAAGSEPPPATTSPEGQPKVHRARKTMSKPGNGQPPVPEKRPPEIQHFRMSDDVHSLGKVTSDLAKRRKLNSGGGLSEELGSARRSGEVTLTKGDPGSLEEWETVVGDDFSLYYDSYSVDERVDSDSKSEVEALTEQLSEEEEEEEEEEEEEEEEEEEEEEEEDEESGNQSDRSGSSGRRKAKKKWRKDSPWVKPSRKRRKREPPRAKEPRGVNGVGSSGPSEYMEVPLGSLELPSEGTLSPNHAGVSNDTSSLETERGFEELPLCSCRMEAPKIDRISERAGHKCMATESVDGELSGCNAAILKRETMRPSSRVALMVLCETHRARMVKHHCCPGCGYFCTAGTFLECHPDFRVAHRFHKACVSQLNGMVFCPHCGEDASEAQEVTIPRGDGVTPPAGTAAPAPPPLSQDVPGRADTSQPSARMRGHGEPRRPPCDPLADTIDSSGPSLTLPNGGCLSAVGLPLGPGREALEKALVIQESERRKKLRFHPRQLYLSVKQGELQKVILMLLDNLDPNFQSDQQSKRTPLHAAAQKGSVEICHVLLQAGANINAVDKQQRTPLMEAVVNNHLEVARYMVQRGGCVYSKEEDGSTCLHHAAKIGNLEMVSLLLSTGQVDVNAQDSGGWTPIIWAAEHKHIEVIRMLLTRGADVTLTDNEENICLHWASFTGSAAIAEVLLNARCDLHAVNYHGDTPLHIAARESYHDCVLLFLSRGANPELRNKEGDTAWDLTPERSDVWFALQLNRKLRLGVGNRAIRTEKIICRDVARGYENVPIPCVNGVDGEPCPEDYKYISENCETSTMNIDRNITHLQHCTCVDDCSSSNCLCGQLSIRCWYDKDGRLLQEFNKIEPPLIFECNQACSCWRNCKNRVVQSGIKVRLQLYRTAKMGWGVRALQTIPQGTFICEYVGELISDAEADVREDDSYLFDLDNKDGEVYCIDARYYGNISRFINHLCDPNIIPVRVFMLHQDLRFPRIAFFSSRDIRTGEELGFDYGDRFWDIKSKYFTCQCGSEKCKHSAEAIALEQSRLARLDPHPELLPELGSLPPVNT
Description: After the incubation, the media was removed and 100 μl fixation and permeabilization solution (2% formaldehyde in PBS) for fixation was added for 30 min. And then use 200 μl 0.1% Triton X100 in PBS washing solution to wash (allow wash to shake on a plate shaker for 5 minutes). After five washes, cells were blocked for 1 h with 150 μl blocking buffer to each well (1% BSA in PBS) (allow blocking at RT with moderate shaking on a plate shaker). After 1 h, remove the blocking buffer from the blocking step and add primary antibody in blocking buffer to cover the bottom of each well. […] The plates were read on an Odyssey CLX (LiCor) scanner at both 800 nm (H3K9me2 signal) and 700 nm (cell tag 700 stain signal) channels. IC50s were calculated using GraphPad Prizm statistical package with sigmoidal variable slope dose response curve fit.

[5] = test system: A549; test: Cytotoxicity / anti-proliferation assay (CCK-8), A549; format: cell-based; settings: Homo sapiens, 72 h, CCK-8 kit
Description: (§1) Then the cells were exposed to the different inhibitors with various concentrations for 72 h. […] EC50s were calculated using GraphPad Prizm statistical package with sigmoidal variable slope dose response curve fit.
(§2) Cell anti-proliferation assays were performed to determine the toxicity of these inhibitors. […] These compounds were further evaluated against the control cell line HEK293 to test their toxicity with a non-cancerous cell line.

[6] = test system: HDAC; test: Cell based homogenous HDAC assay, Hela; settings: read-out: IC50-HDAC Hela; Hela cells, mean ± SD of triplicate
Description: as §3, §4

[7] = test system: HCT-8; test: Cytotoxicity / anti-proliferation assay (CCK-8), HCT-8; format: cell-based; settings: Homo sapiens, 72 h, CCK-8 kit
Description: as §1, §2

Row | SMILES | IC50 [1] [µM] | inhibition at 5 µM [2] [%] | IC50 [3] [µM] | IC50 [4] [µM] | IC50 [6] [µM] | EC50 [5] [µM] | EC50 [7] [µM]
1 | COc1cc2nc(NCCNC(=O)CCCCCCC(=O)NO)nc(NC3CCN(C(C)C)CC3)c2cc1OC [Compound 4a, N1-hydroxy-N8-(2-((4-((1-isopropylpiperidin-4-yl)amino)-6,7-dimethoxyquinazolin-2-yl)amino)ethyl)octanediamide] | > 100 | 11.2 ± 3.68 | > 100 | 74.2 ± 1.94 | > 100 | > 100 | > 100
2 | COc1cc2nc(NCCNC(=O)CCCCC(=O)NO)nc(NC3CCN(C(C)C)CC3)c2cc1OC [Compound 6a, N1-hydroxy-N6-(2-((4-((1-isopropylpiperidin-4-yl)amino)-6,7-dimethoxyquinazolin-2-yl)amino)ethyl)adipamide] | > 100 | 50.6 ± 16.5 | > 100 | > 100 | > 100 | > 100 | > 100
3 | COc1cc2nc(NCCNC(=O)CCCCCCC(=O)NO)nc(NC3CCN(C)CC3)c2cc1OC [Compound 4, N1-(2-((6,7-dimethoxy-4-((1-methylpiperidin-4-yl)amino)quinazolin-2-yl)amino)ethyl)-N8-hydroxyoctanediamide] | > 100 | 27 ± 12.2 | > 100 | 96.7 ± 1.68 | > 100 | > 100 | > 100
4 | COc1cc2nc(NCCNC(=O)CCCCCC(=O)NO)nc(NC3CCN(C(C)C)CC3)c2cc1OC [Compound 5a, N1-hydroxy-N7-(2-((4-((1-isopropylpiperidin-4-yl)amino)-6,7-dimethoxyquinazolin-2-yl)amino)ethyl)heptanediamide] | > 100 | 47.5 ± 9.32 | > 100 | 66.6 ± 3.98 | > 100 | > 100 | > 100
5 | COc1cc2nc(NCCNC(=O)CCCCCC(=O)NO)nc(NC3CCN(C)CC3)c2cc1OC [Compound 5, N1-(2-((6,7-dimethoxy-4-((1-methylpiperidin-4-yl)amino)quinazolin-2-yl)amino)ethyl)-N7-hydroxyheptanediamide] | > 100 | 65 ± 1.95 | > 100 | > 100 | > 100 | > 100 | > 100

The next lines start with results.

Row | IC50 [1] [µM] | inhibition at 5 µM [2] [%] | IC50 [3] [µM] | IC50 [4] [µM] | IC50 [6] [µM] | SMILES | EC50 [5] [µM] | EC50 [7] [µM]
6 | > 100 | 26.6 ± 11.3 | > 100 | > 100 | > 100 | COc1cc2nc(NCCNC(=O)CCCCC(=O)NO)nc(NC3CCN(C)CC3)c2cc1OC [Compound 6, N1-(2-((6,7-dimethoxy-4-((1-methylpiperidin-4-yl)amino)quinazolin-2-yl)amino)ethyl)-N6-hydroxyadipamide] | > 100 | > 100
7 | > 100 | 15 ± 15.7 | > 100 | 54.6 ± 3.05 | > 100 | COc1cc2nc(NCCNC(=O)CCCC(=O)NO)nc(NC3CCN(C(C)C)CC3)c2cc1OC [Compound 7a, N1-hydroxy-N5-(2-((4-((1-isopropylpiperidin-4-yl)amino)-6,7-dimethoxyquinazolin-2-yl)amino)ethyl)glutaramide] | > 100 | > 100
8 | > 100 | 19.6 ± 20.9 | > 100 | 76.7 ± 0.89 | > 100 | COc1cc2nc(NCCNC(=O)CCCC(=O)NO)nc(NC3CCN(C)CC3)c2cc1OC [Compound 7, N1-(2-((6,7-dimethoxy-4-((1-methylpiperidin-4-yl)amino)quinazolin-2-yl)amino)ethyl)-N5-hydroxyglutaramide] | > 100 | > 100
9 | > 100 | 35.6 ± 0.88 | > 100 | 27.4 ± 3.59 | > 100 | COc1cc2c(NC3CCN(C(C)C)CC3)nc(N3CCCN(C)CC3)nc2cc1OCCCCCCC(=O)NO [Compound 26, N-hydroxy-7-((4-((1-isopropylpiperidin-4-yl)amino)-6-methoxy-2-(4-methyl-1,4-diazepan-1-yl)quinazolin-7-yl)oxy)heptanamide] | > 100 | > 100
